Test results taken from publication PMC10578352, “Identification of a Protein Arginine Methyltransferase 7 (PRMT7)/Protein Arginine Methyltransferase 9 (PRMT9) Inhibitor” (Journal of Medicinal Chemistry, 2023).
pIC50: −log10 of the molar value.

Legend:
human recombinant PRMT9 = target: T1, human recombinant PRMT9 (Homo sapiens, UniProt Q6P2P2); assay: AlphaLISA PRMT9 activity assay (modified BPS kit, biotinylated SF3B2 peptide); assay type: biochemical; conditions: PRMT9 0.105 μM, biotinylated SF3B2 (500–519) peptide 100 nM, SAM 25 μM
T1 construct: human recombinant PRMT9 (2–845; N-terminal FLAG-tag, C-terminal His6-tag); FLAG (N); His6 (C); purchased BPS BioScience 79124
T1 sequence (Q6P2P2 2-845): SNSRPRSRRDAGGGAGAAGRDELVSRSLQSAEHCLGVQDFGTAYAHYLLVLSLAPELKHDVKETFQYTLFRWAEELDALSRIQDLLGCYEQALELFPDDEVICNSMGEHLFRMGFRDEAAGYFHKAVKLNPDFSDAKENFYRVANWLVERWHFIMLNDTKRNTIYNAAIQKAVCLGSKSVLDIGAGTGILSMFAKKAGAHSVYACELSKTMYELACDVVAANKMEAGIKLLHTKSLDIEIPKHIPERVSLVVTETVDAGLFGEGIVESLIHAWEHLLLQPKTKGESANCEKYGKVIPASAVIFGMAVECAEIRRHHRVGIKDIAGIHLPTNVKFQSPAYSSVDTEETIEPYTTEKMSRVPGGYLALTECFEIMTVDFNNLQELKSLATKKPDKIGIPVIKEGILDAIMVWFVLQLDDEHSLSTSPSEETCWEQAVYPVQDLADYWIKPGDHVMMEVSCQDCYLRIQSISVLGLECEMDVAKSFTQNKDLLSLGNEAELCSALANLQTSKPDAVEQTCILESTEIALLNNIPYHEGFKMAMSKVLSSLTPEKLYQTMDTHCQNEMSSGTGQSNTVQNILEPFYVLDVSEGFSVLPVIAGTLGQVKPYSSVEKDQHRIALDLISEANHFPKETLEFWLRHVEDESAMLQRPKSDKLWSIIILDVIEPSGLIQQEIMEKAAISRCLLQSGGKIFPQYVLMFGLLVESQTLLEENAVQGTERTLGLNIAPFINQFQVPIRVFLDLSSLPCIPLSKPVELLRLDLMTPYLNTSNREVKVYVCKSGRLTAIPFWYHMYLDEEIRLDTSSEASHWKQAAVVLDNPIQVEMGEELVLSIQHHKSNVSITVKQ
Description: Accordingly, all the enzymatic inhibition data were obtained by performing the assays in these optimized conditions.
The reaction was incubated for 60 min. Afterward, in each well, 5 μL of a 1:100 dilution of Primary antibody 28 (BPS BioScience, #52140Z3) in Detection buffer (BPS BioScience) and 5 μL of anti-Rabbit acceptor beads (PerkinElmer, #AL104C) were added to obtain a final concentration of 20 μg/mL.
For each incubation step, the OptiPlate was sealed with a protective foil to prevent evaporation and contamination. Donor and Acceptor beads were added to the mixture in subdued light.
The 100% activity (positive control) was reached using vehicle (DMSO), while 0% activity (negative control) was obtained without the protein. Data were analyzed by using Excel and Prism software. Values obtained for each compound are mean ± SD determined for three separate experiments.

CePRMT9 = assay: Radioisotope-based assay (SDS-PAGE, fluorography, densitometry), CePRMT9; assay type: biochemical, Caenorhabditis elegans; conditions: substrate GST-CeSFTB-2 (99–248), 25 °C
Description: Based on these outcomes, we resolved to explore the effect on the capability to inhibit PRMT9 enzymatic activity of further reduction of the distance between the pharmacophoric moieties. […] After the experiment was repeated with 100, 250, and 500 μM concentrations of each inhibitor, half inhibition was observed only at a concentration of roughly 250 μM (Figure 4d).
[…]. The experiments were performed as reported in the Experimental procedures section. GST-HsPRMT9 (a) and GST-HsPRMT7 (b) were incubated with human GST-SF3B2 (401–550) peptide or recombinant HsH2B, respectively (1 μg of enzyme, 5 μg of substrate), 0.14 μM [^3H]SAM, and the indicated concentrations of tested compounds at the corresponding optimal reaction temperature (37 °C for HsPRMT9, 15 °C for HsPRMT7). C. elegans GST-tagged enzymes PRMT9 (c) and PRMT7 (d) were incubated with GST-CeSFTB-2 (99–248) fragment or recombinant HsH2B, respectively (1 μg of enzyme, 5 μg of substrate), 0.14 μM [^3H]SAM, and the indicated concentrations of tested compounds at the corresponding optimal reaction temperature (25 °C for CePRMT9, 15 °C for CePRMT7). After SDS-PAGE, the gels were treated as previously described[48] and densitometry analysis was done using ImageJ software, and data was plotted as normalized activity to the no inhibitor controls.
Human PRMT9, C. elegans PRMT9, human PRMT7, and C. elegans PRMT7 plasmids were sequenced, expressed in E. coli as GST-fusion proteins, and purified as previously described.[48] Substrates were also sequenced and purified as described [human GST-SF3B2 (401–550);[13]C. elegans SFTB-2;[48] human histone H2B (New England Biolabs, M2505S)]. Xenopus laevis histone H2B was expressed in E. coli and purified similarly to what was previously reported by Luger et al.[72]
Reactions consisting of approximately 1 μg of enzyme (human or C. elegans GST-tagged enzymes PRMT9 and PRMT7), reacted with approximately 5 μg of substrate [for human PRMT9, human GST-SF3B2 401–550 fragment; C. elegans PRMT9 with C. elegans GST-SFTB-2 (99–248) fragment, or recombinant human histone H2B from New England Biolabs (M2505S)], were incubated for the indicated time in reaction buffer {50 mM potassium HEPES buffer, 10 mM NaCl, 1 mM dithiothreitol (DTT), pH 8.0 with 0.7 μM S-adenosyl-L-[methyl-^3H]methionine (^3H-AdoMet, PerkinElmer Life Sciences, 82.7 Ci/mmol, 0.55 mCi/mL in 10 mM H2SO4/EtOH [9:1 (v/v)])} in a final reaction volume of 60 μL. Each reaction was incubated at the corresponding optimal reaction temperature (37 °C for human PRMT9, 25 °C for C. elegans PRMT9, and 15 °C for C. elegans and human PRMT7 enzymes. MTA was dissolved in water, and a wavelength scan was taken to determine the final concentration using the extinction coefficient. The final concentrations used are indicated in the figure legends. […]. EML734, EML736, and EML709 were also dissolved in DMSO, and further dilutions were made in DMSO for the working stocks. For controls, no inhibitor reactions were created by the addition of the respective solvent (water for MTA and DMSO for EPZ015666 and EML inhibitors).
After the reaction incubations with the various concentrations of inhibitors, the reactions were quenched by adding 0.2 volume of 5× SDS sample loading buffer, and subsequently, the reactions were run on a 12.6% polyacrylamide Tris gel. To collect the radioactive signal, the gels were then treated in the same way as previously described.[48]
After various exposures were collected to ensure linear detection, densitometry analysis was done using ImageJ software, and data were plotted as normalized activity to the no inhibitor controls.

| SMILES | pIC50 (human recombinant PRMT9) | % CePRMT9 residual activity (CePRMT9; 5 uM) [%] | % CePRMT9 residual activity (CePRMT9; 25 uM) [%] | % CePRMT9 residual activity (CePRMT9; 50 uM) [%] | % CePRMT9 residual activity (CePRMT9; 100 uM) [%] |
| --- | --- | --- | --- | --- | --- |
| COC(=O)c1cc(O)c2cc(NC(=O)NCCCNC(=N)NC[C@H]3O[C@@H](n4cnc5c(N)ncnc54)[C@H](O)[C@@H]3O)ccc2c1 [1a] | 6.05 | 106.32 | 67.30 | 31.52 | 19.47 |
| COC(=O)c1cc(O)c2cc(NC(=O)NCCCCNC(=N)NC[C@H]3O[C@@H](n4cnc5c(N)ncnc54)[C@H](O)[C@@H]3O)ccc2c1 [1b] | 5.88 | 114.11 | 95.80 | 52.55 | 39.17 |
| COC(=O)c1cc(O)c2cc(NC(=O)NCCCCCNC(=N)NC[C@H]3O[C@@H](n4cnc5c(N)ncnc54)[C@H](O)[C@@H]3O)ccc2c1 [1c] | 5.24 | 110.89 | 81.62 | 50.08 | 12.31 |
| COC(=O)c1cc(O)c2cc(NC(=O)NCCCNC(=N)NC[C@H]3O[C@@H](n4cnc5c(N)ncnc54)[C@H](O)[C@@H]3O)cc(C(F)(F)F)c2c1 [1j, Methyl 6-(3-(3-(3-(((2R,3S,4R,5R)-5-(6-Amino-9H-purin-9-yl)-3,4-dihydroxytetrahydrofuran-2-yl)methyl)guanidino)propyl)ureido)-4-hydroxy-8-(trifluoromethyl)-2-naphthoate] | 6.70 | – | – | – | – |
